Experimental data published in US9649268B2, “Glucuronolactone derivatives as self-tanning substances” (MERCK PATENT GMBH, priority 2011, dated 2017).

Columns and labels:
[1] = Liquid skin model (reaction with L-lysine, L*a*b* values); details: after 24 hours; for L* / a* / b*: 1 mmol compound + 1 mmol L-lysine, phosphate-buffered water (pH=7)/ethylene glycol
Protocol: The mixture is subsequently made up to the mark with a mixture of 6 ml of phosphate-buffered water (pH=7) and 94 ml of ethylene glycol. The reaction is observed with vigorous stirring, and the L*a*b* values are determined after 24 hours.

[2] = Colouring test on merino wool balls; details: 1 mmol in 100 ml buffer (pH 7)/ethylene glycol 6/94, RT, 24 h, then washed and dried
Protocol: 1 mmol of each of DHA and the glucuronolactone derivatives are weighed out into a 100 ml conical flask with ground-glass joint:
(2) Glucuronolactone: 176 mg
(3) Compound (Ia): 216 mg
(4) Compound (Ic): 264 mg
A merino wool ball with the size of a grape and a magnetic stirrer are then added to each conical flask.
A mixture of 6% by vol. of buffer (ph7) and 94% by vol. of ethylene glycol is then prepared, 100 ml of this mixture are added to each conical flask and stirred at RT for 24 h.
After 24 h, the wool balls are washed firstly with water, then with warm washing-powder solution and again with water and dried.
This colouring result can also be applied to hair, since merino wool, like hair, is built up from proteins (keratins) and the outermost layer is in each case the cuticle.

[3] = Stability/odour of test formulations on storage; assay type: physicochemical; details: formulation with 5% active compound (mixture: 5% DHA + 1% compound Ia), stored at 40° C. for 8 weeks
Protocol: In order to compare the odour and stability of glucuronolactone, glucuronolactone acetonide of the formula (Ia), DHA and a combination in a formulation, 5 formulations are prepared: one without active compound as placebo, one with 5% of glucuronolactone, one with 5% of compound (Ia), one with 5% of DHA and one with 5% of DHA+1% of compound (Ia) (denoted by “active compound” in the recipe).
The following recipe is used:
Sources of Supply: (1) Sasol Germany GmbH, (2) Cognis GmbH, (3) Hansen&Rosenthal KG, (4) Merck KGaA/Rona®, (5) Alfa Aesar Preparation of the Formulations: […]
Heat phase A, heat phase B, prepare phase C on a magnetic stirrer (first introduce water, then add thickener), then homogenise phase C with phase B using an Ultra-Turrax and at the same time slowly add phase A. Subsequently add phase D and likewise homogenise well.
In the case of the 5th cream (with DHA and glucuronolactone acetonide), adjust the water proportion correspondingly.

[4] = system: histological explants from the lower abdomen tissue of a person; experiment: Ex-vivo study on skin explants, chromametric measurement (ITA); design: species or system human; details: for Day 5 (ITA value): 30 μl on 5 consecutive days, 2 h
Protocol: 24 histological explants having an average diameter of 10 mm are prepared from the lower abdomen tissue of a person. The pieces of tissue are kept in BEM medium (BIO-EC's explants medium) at 37° C. in a humid atmosphere comprising 5% of CO2.
The tissue is divided into 8 batches of 3 explants each:
30 μl of the substance solutions are applied on 5 consecutive days using a round filter paper and left to act for 2 h. On days 0, 5 and 8, tissue sections with a thickness of 5 μm are prepared from the explants. These sections are investigated morphologically and measured chromametrically.
The colour measurements are carried out using a Minolta CR-300 Chroma-meter, and the L, a and b values are read off correspondingly on the instrument.
Principle of the Chromametric Measurement:
The following parameters are set:
In 1931, a test series was carried out by the CIE (Commision Internationale de L'Eclairage), where the “2-degree standard observer” was defined. A colour area is present here which is viewed at a viewing angle of 2 degrees. This viewing angle is used as standard in the chromametric measurement. • Irradiation source D65, corresponding to daylight • Region of the measurement: 3 mm • Parameters used: L* a* b*
The sample is placed on the bearing rail with the epidermis facing downwards. The irradiation is carried out from the underside through the area indicated (3 mm).
In the colorimetric determinations <<L a b>>, the L value determines the contrast of the skin. If the L value drops, the skin appears darker.
ITA is defined as arctan g[(L−50)/b]. If the ITA index increases, the skin appears paler.

Row | SMILES | L* [1] | a* [1] | b* [1] | L values compared with erythrulose (darker colour) [1] | colouration of wool samples compared with the untreated sample [2] | odour of the formulation [3] | Day 5 (ITA value) ([4]; 1% solution) [%] | Day 5 (ITA value) ([4]; 4% solution) [%] | colour effect ([4]; identical concentration in the test formulation) | melting point [°C]
1 | CC1(C)OC2OC3C(O)C(=O)OC3C2O1 (stereo not shown) [Compound Ia, glucuronolactone acetonide] | 82.6 | 29.4 | 103.7 | lower L values than erythrulose | yellow colouration | produce no odour | −2 | −5 | comparable to erythrulose | –
2 | COC1OC2C(O)C(=O)OC2C1O (stereo not shown) [Compound Ib] | 81.1 | 30.8 | 103.8 | lower L values than erythrulose | – | – | – | – | – | –
3 | O=C1OC2C3OC(c4ccccc4)OC3OC2C1O [Compound Ic, 1,2-O—(R,S)-(Benzylidene)-α-D-glucofuranurono-6,3-lactone] | 68.0 | 55.2 | 109.6 | lower L values than erythrulose | yellow colouration | – | – | – | – | –
4 | COc1ccc(C2OC3OC4C(O)C(=O)OC4C3O2)cc1 [Compound Ie, 1,2-O—(R,S)-(4-Methoxybenzylidene)-α-D-glucofuranurono-6,3-lactone] | 76.4 | 39.1 | 106.7 | lower L values than erythrulose | – | – | – | – | – | –
5 | COc1cc(C2OC3OC4C(O)C(=O)OC4C3O2)ccc1O [Compound Ig, 1,2-O—(R,S)-(4-hydroxy-3-methoxybenzylidene)-α-D-glucofuranurono-6,3-lactone] | 80.9 | 32.0 | 100.0 | lower L values than erythrulose | – | – | – | – | – | 82
6 | O=C(CO)CO [DHA, 1,3-dihydroxyacetone, reference compound] | 46.7 | 27.2 | 69.4 | – | no colouration | developed the typical DHA odour | −15 | – | – | –
7 | O=C(CO)[C@H](O)CO [Erythrulose, reference compound] | 92.6 | 4.8 | 35.8 | – | – | – | – | −5 | – | –
8 | O=C[C@H](O)[C@H]1OC(=O)[C@@H](O)[C@H]1O [Glucuronolactone] | 96.1 | 4.3 | 45.9 | – | no colouration | produce no odour | −3 | – | – | –
